According to patent US20100311580A1, “Active Compound Combinations” (Bayer CropScience AG, priority 2007, published 2010):

Columns and labels:
Assay type in all cases: in vivo
[1] = tested on: Nilaparvata lugens; test: Nilaparvata lugens test (spray on rice plants); details: larvae
Experimental: Solvent: 7 parts by weight of dimethylformamide Emulsifier: 2 parts by weight of alkylaryl polyglycolether
(§1) To produce a suitable preparation of active compound, 1 part by weight of active compound is mixed with the stated amount of solvent and emulsifier, and the concentrate is diluted with emulsifier-containing water to the desired concentration.
Rice plants (Oryza sativa) are treated by being sprayed with the preparation of the active compound at the desired concentration and are infested with larvae of the Brown plant hopper (Nilaparvata lugens) as long as the leaves are still moist.
After the specified period of time, the mortality in % is determined. 100% means that all the hopper larvae have been killed; 0% means that none of the hopper larvae have been killed.

[2] = tested on: Phaedon cochleariae; test: Phaedon cochleariae test (spray on cabbage leaves); details: larvae
Experimental: Solvent: 7 parts by weight of dimethylformamide
Emulsifier: 2 parts by weight of alkylaryl polyglycolether
as §1
Cabbage leaves (Brassica oleracea) are treated by being sprayed with the preparation of the active compound at the desired concentration and are infested with larvae of the mustard beetle (Phaedon cochleariae) as long as the leaves are still moist.
After the specified period of time, the mortality in % is determined. 100% means that all the beetle larvae have been killed; 0% means that none of the beetle larvae have been killed.

[3] = tested on: Blumeria graminis f. sp. hordei; test: Blumeria test (barley)/SAR 5d; details: 1000 ppm, inoculation 5 days after spraying, evaluated 7 days after inoculation
Experimental: Solvent: 50 parts by weight of n,n-dimethylacetamid Emulsifier: 1 part by weight of alkylaryl polyglycol ether
To produce a suitable preparation of active compound, 1 part by weight of active compound or active compound combination is mixed with the stated amounts of solvent and emulsifier, and the concentrate is diluted with water to the desired concentration.
To test for systemic activated resistance, young plants are sprayed with the preparation of active compound or active compound combination at the stated rate of application. After the spray coating has dried on, the plants are placed in a greenhouse at a temperature of approximately 18° C. and a relative atmospheric humidity of approximately 80%.
5 days after spraying, the plants are dusted with spores of Blumeria graminis f. sp. hordei. The plants then remain in a greenhouse at a temperature of approximately 18° C. and a relative atmospheric humidity of approximately 80% to promote the development of mildew pustules.
The test is evaluated 7 days after the inoculation, 1. and 2. leaf separated. 0% means an efficacy with corresponds to that of the control while an efficacy of 100% means that no disease is observed.

SMILES | Efficacy in % ([3]; 1st leaf) [%] | Efficacy in % ([3]; 2nd leaf) [%] | Efficacy in % after 3 d (mortality) ([2]; 4 ppm) [%] | also measured
N#Cc1ccccc1NC(=O)c1snc(Cl)c1Cl [Isotianil, 3,4-dichloro-N-(2-cyanophenyl)-5-isothiazolecarboxamide] | 44 | 44 | – | Efficacy in % after 3 d (mortality) ([1]; 200 ppm): 0%; Efficacy in % after 3 d (mortality) ([2]; 200 ppm): 0%; Efficacy in % after 6 d (mortality) ([2]; 200 ppm): 0%
O=[N+]([O-])NC1=NCCN1Cc1ccc(Cl)nc1 [Imidacloprid, imidacloprid] | – | – | – | Efficacy in % after 3 d (mortality) ([1]; 0.8 ppm): 0%
N#C/N=C1\SCCN1Cc1ccc(Cl)nc1 [Thiacloprid, thiacloprid] | – | – | 5 | –
CN/C(=N\[N+](=O)[O-])NCc1cnc(Cl)s1 [Clothianidin, clothianidin] | – | – | 15 | –
Cc1cc(C(F)(C(F)(F)F)C(F)(F)F)ccc1NC(=O)c1cccc(I)c1C(=O)NC(C)(C)CS(C)(=O)=O [Flubendiamide, flubendiamide] | 22 | 22 | 0 | Efficacy in % after 3 d (mortality) ([1]; 0.16 ppm): 0%; Efficacy in % after 3 d (mortality) ([2]; 0.8 ppm): 0%; Efficacy in % after 6 d (mortality) ([2]; 4 ppm): 0%
